Test results from US6362369B1, “Phthalic acid diamide derivatives fluorine-containing aniline compounds as starting material, agricultural and horticultural insecticides, and a method for application of the insecticides” (Nihon Nohyaku Co., Ltd., priority 1997, dated 2002).

Key:
Format in all cases: in vivo
[1] = test system: common cutworm (Spodoptera Litura); assay: Insecticidal effect on common cutworm (Test Example 2); details: 500 ppm, 25° C.; for Insecticidal effect, Test Example 2: cabbage leaf immersed; for Insecticidal effect, Test Example 2 / Insecticidal effect on common cutworm (Test Example 2), judged grade: eight days after inoculation; for Insecticidal effect on common cutworm (Test Example 2), judged grade / Insecticidal effect (Test Example 2), judged from mortality: cabbage leaf dip; for Insecticidal effect on common cutworm (Test Example 2), judged grade: second-instar larvae; for Insecticidal effect (Test Example 2), judged from mortality: 8 days after inoculation
Outline: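 2nd-instar larvae on air-dried treatment, closed dish, 25° C; dead/alive counted at day 8. Mortality calculated, graded by criterion. 3 × 10 insects.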

[2] = test system: diamondback moth (Plutella xylostella); assay: Insecticidal effect on diamondback moth (Test Example 1); details: for Insecticidal effect, Test Example 1 / Insecticidal effect (Test Example 1), judged from mortality: diamondback moth; for Insecticidal effect on diamondback moth (Test Example 1), judged grade: mortality judged according to the criterion shown in Test Example 1; for Insecticidal effect (Test Example 1), judged from mortality: judged by the criterion of Test Example 1
Outline: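 Triplicate groups of 10 insects: eggs laid on Chinese cabbage seedling by adults, seedling immersed then air-dried, kept at 25° C. Day-6 hatch counts gave mortality, rated by criterion.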

[3] = test system: rice leafroller (Cnaphalocrocis medinalis); assay: Insecticidal effect on rice leafroller (Test Example 3); details: 500 ppm, 25° C., humidity 70%; for Insecticidal effect, Test Example 3: rice lamina immersed; for Insecticidal effect, Test Example 3 / Insecticidal effect on rice leafroller (Test Example 3), judged grade: four days after inoculation; for Insecticidal effect on rice leafroller (Test Example 3), judged grade / Insecticidal effect (Test Example 3), judged from mortality: rice lamina dip; for Insecticidal effect on rice leafroller (Test Example 3), judged grade: third-instar larvae; for Insecticidal effect (Test Example 3), judged from mortality: 4 days after inoculation
Outline: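 Insecticidal effect is judged by a predefined criterion from dead/alive counts four days after infesting air-dried lamina with third-instar larvae, kept on moistened filter paper at 25° C, 70% humidity.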

[4] = common cutworm second-instar larvae
[5] = mortality judged by criterion of Test Example 1
[6] = rice leafroller third-instar larvae
[7] = second-instar larvae of common cutworm
[8] = judged by the mortality criterion of Test Example 1
[9] = third-instar larvae of rice leafroller

Question: How did the “Insecticidal effect, Test Example 2” value [1, 4] turn out when `CCc1cc(OC(F)(F)F)ccc1NC(=O)c1cccc(I)c1C(=O)NC(C)C` [compound 1210] was run?
Answer: A (100)

Question: And the “Insecticidal effect, Test Example 1” value [2, 5]?
Answer: A (100)

Question: And the “Insecticidal effect, Test Example 3” value [3, 6]?
Answer: A (100)

Question: Which results are given for `Cc1cc(C(F)(F)C(F)(F)C(F)(F)F)ccc1NC(=O)c1cccc(I)c1C(=O)NC(C)C` [compound 373]?
Answer: Insecticidal effect, Test Example 2 [1, 7]: A (100); Insecticidal effect, Test Example 1 [2, 8]: A (100); Insecticidal effect, Test Example 3 [3, 9]: A (100)

Question: Which “Insecticidal effect, Test Example 2” value [1, 4] does the source give for `Cc1cc(C(F)(F)C(F)(F)F)ccc1NC(=O)c1cccc(OC(F)(F)F)c1C(=O)NC(C)(C)C` [compound 1192] here?
Answer: A (100)

Question: What about the “Insecticidal effect, Test Example 1” value [2, 5] of the same compound?
Answer: A (100)

Question: And the “Insecticidal effect, Test Example 3” value [3, 6]?
Answer: A (100)

Question: With `CC(C)NC(=O)c1c(Cl)cccc1C(=O)Nc1ccc(C(F)(F)C(F)(F)F)cc1` [compound 893] as the compound, how does the “Insecticidal effect on common cutworm (Test Example 2), judged grade” value (shortened to “Insecticidal effect on common cutworm”) [1] read?
Answer: A (100)

Question: What about the “Insecticidal effect on diamondback moth (Test Example 1), judged grade” value (“Insecticidal effect on diamondback moth” for short) [2] of the same compound?
Answer: A (100)

Question: And the “Insecticidal effect on rice leafroller (Test Example 3), judged grade” value (from here on “Insecticidal effect on rice leafroller”) [3]?
Answer: A (100)

Question: How did the “Insecticidal effect, Test Example 2” value [1, 4] turn out when `Cc1cc(OC(F)F)ccc1NC(=O)c1cccc(Cl)c1C(=O)NC(C)(C)C` [compound 1019] was run?
Answer: A (100)

Question: And the “Insecticidal effect, Test Example 1” value [2, 5]?
Answer: A (100)

Question: What about the “Insecticidal effect, Test Example 3” value [3, 6] of the same compound?
Answer: A (100)

Question: Which “Insecticidal effect, Test Example 2” value [1, 4] does the source give for `CCN(CC)C(=O)c1c(C(=O)Nc2ccc(C(F)(C(F)(F)F)C(F)(F)F)cc2C)ccc(F)c1Cl` [compound 1264] here?
Answer: A (100)

Question: What about the “Insecticidal effect, Test Example 1” value [2, 5] of the same compound?
Answer: A (100)

Question: And the “Insecticidal effect, Test Example 3” value [3, 6]?
Answer: A (100)

Question: How did the “Insecticidal effect (Test Example 2), judged from mortality” value [1, 7] turn out when `CCC(C)NC(=O)c1c(Cl)cccc1C(=O)Nc1ccc(C(F)(F)C(F)(F)F)cc1Cl` (stereo not drawn) [compound 1499] was run?
Answer: A (100)

Question: And the “Insecticidal effect (Test Example 1), judged from mortality” value [2]?
Answer: A (100)

Question: What about the “Insecticidal effect (Test Example 3), judged from mortality” value [3, 9] of the same compound?
Answer: A (100)

Question: How did the “Insecticidal effect on common cutworm” value [1] turn out when `Cc1c(NC(=O)c2cccc([N+](=O)[O-])c2C(=O)NC(C)C)cccc1OC(F)(F)C(F)Cl` (stereo not drawn) [compound 713] was run?
Answer: B (99-90)

Question: And the “Insecticidal effect on diamondback moth” value [2]?
Answer: A (100)

Question: And the “Insecticidal effect on rice leafroller” value [3]?
Answer: D (79-50)

Question: For `Cc1cc(C(F)(C(F)(F)F)C(F)(F)F)ccc1NC(=O)c1ccc(Cl)c(Cl)c1C(=O)NC(C)C` [compound 1223], which “Insecticidal effect, Test Example 2” value [1, 4] is on record?
Answer: A (100)

Question: And the “Insecticidal effect, Test Example 1” value [2, 5]?
Answer: A (100)

Question: And the “Insecticidal effect, Test Example 3” value [3, 6]?
Answer: A (100)

Question: What does the source list for `CC(C)NC(=O)c1c(C(=O)Nc2ccc(OC(F)F)cc2)cccc1[N+](=O)[O-]` [compound 617]?
Answer: Insecticidal effect on common cutworm (Test Example 2), judged grade [1]: A (100); Insecticidal effect on diamondback moth (Test Example 1), judged grade [2]: A (100); Insecticidal effect on rice leafroller (Test Example 3), judged grade [3]: A (100)

Question: How did the “Insecticidal effect (Test Example 2), judged from mortality” value [1, 7] turn out when `CCN(CC)C(=O)c1c(F)cccc1C(=O)Nc1ccc(Cl)cc1C` [compound 1546] was run?
Answer: C (89-80)

Question: What about the “Insecticidal effect (Test Example 1), judged from mortality” value [2] of the same compound?
Answer: A (100)

Question: What about the “Insecticidal effect (Test Example 3), judged from mortality” value [3, 9] of the same compound?
Answer: A (100)

Question: For `COc1ccc(-c2ccccc2)cc1NC(=O)c1c(Cl)cccc1C(=O)NC(C)C` [compound 1295], which “Insecticidal effect, Test Example 2” value [1, 4] is on record?
Answer: A (100)

Question: And the “Insecticidal effect, Test Example 1” value [2, 5]?
Answer: A (100)

Question: And the “Insecticidal effect, Test Example 3” value [3, 6]?
Answer: A (100)

Question: For `CC(C)(C)NC(=O)c1c(F)cccc1C(=O)Nc1ccc(C(F)(F)C(F)(F)F)cc1Cl` [compound 1508], which “Insecticidal effect (Test Example 2), judged from mortality” value [1, 7] is on record?
Answer: C (89-80)

Question: And the “Insecticidal effect (Test Example 1), judged from mortality” value [2]?
Answer: A (100)

Question: And the “Insecticidal effect (Test Example 3), judged from mortality” value [3, 9]?
Answer: A (100)

Question: Which “Insecticidal effect, Test Example 2” value [1, 4] does the source give for `CC(C)(C)NC(=O)c1c(I)cccc1C(=O)Nc1ccc(C(F)(F)C(F)(F)F)cc1C(F)(F)F` [compound 1429] here?
Answer: A (100)

Question: What about the “Insecticidal effect, Test Example 1” value [2, 5] of the same compound?
Answer: A (100)

Question: What about the “Insecticidal effect, Test Example 3” value [3, 6] of the same compound?
Answer: A (100)

Question: Which results are given for `Cc1c(NC(=O)c2cccc(I)c2C(=O)NC(C)C)cccc1C(F)(F)F` [compound 370]?
Answer: Insecticidal effect, Test Example 2 [1, 7]: A (100); Insecticidal effect, Test Example 1 [2, 8]: A (100); Insecticidal effect, Test Example 3 [3, 9]: A (100)

Question: Which “Insecticidal effect (Test Example 2), judged from mortality” value [1, 7] does the source give for `CC(C)(C)NC(=O)c1c(Cl)cccc1C(=O)Nc1ccc(C(F)(F)C(F)(F)F)cc1Cl` [compound 1449] here?
Answer: A (100)

Question: And the “Insecticidal effect (Test Example 1), judged from mortality” value [2]?
Answer: A (100)

Question: And the “Insecticidal effect (Test Example 3), judged from mortality” value [3, 9]?
Answer: A (100)

Question: With `Cc1c(Cl)cccc1NC(=O)c1cccc([N+](=O)[O-])c1C(=O)NC(C)C` [compound 663] as the compound, how does the “Insecticidal effect on common cutworm” value [1] read?
Answer: A (100)

Question: What about the “Insecticidal effect on diamondback moth” value [2] of the same compound?
Answer: A (100)

Question: What about the “Insecticidal effect on rice leafroller” value [3] of the same compound?
Answer: D (79-50)

Question: What does the source list for `Cc1cc(C(F)(F)C(F)(F)F)ccc1NC(=O)c1cccc(I)c1C(=O)NCC1CCCCC1` [compound 1028]?
Answer: Insecticidal effect, Test Example 2 [1, 4]: A (100); Insecticidal effect, Test Example 1 [2, 5]: A (100); Insecticidal effect, Test Example 3 [3, 6]: A (100)
